Data as given in the NIST ThermoML archive (doi:10.1021/je200659c).
± gives the expanded uncertainty stated by the source.

Assays:
[1] = xn = mol fraction of the nth substance listed; conditions: Maximal bubble pressure
[2] = Maximal bubble pressure

O [water] + COS(=O)(=O)[O-].Cn1cc[n+](C)c1
Conditions | surface tension liquid-gas [mN/m]
[1], 296.8 K, x2 = 0 | 71.1 ± 0.6

COS(=O)(=O)[O-].Cn1cc[n+](C)c1 [1,3-dimethylimidazolium methylsulfate] + O
[1]
Conditions | surface tension liquid-gas [mN/m]
297 K, x1 = 0.008 | 70.6 ± 0.4
297.1 K, x1 = 0.025 | 69.5 ± 0.5
297.3 K, x1 = 0.055 | 68.2 ± 0.6
297.6 K, x1 = 0.093 | 67.3 ± 0.7
297.6 K, x1 = 0.141 | 66.4 ± 0.8
297.7 K, x1 = 0.183 | 65.7 ± 0.6
298 K, x1 = 0.222 | 65.3 ± 0.6
298.1 K, x1 = 0.261 | 64.7 ± 1.3
298.1 K, x1 = 0.292 | 64.7 ± 1.1

O [water] + CCn1cc[n+](C)c1.CS(=O)(=O)[O-]
[1], x2 = 0
Conditions | surface tension liquid-gas [mN/m]
300 K | 71.6 ± 1.1
301.2 K | 71.4 ± 0.7

CCCCn1cc[n+](C)c1.CS(=O)(=O)[O-] [1-butyl-3-methylimidazolium methanesulfonate] + O
[1]
Conditions | surface tension liquid-gas [mN/m]
297.5 K, x1 = 0.004 | 65.1 ± 0.7
297.7 K, x1 = 0.014 | 62.9 ± 0.7
297.8 K, x1 = 0.026 | 59.6 ± 0.7
297.8 K, x1 = 0.064 | 53.6 ± 1.2
298 K, x1 = 0.115 | 50.3 ± 0.7
298 K, x1 = 0.256 | 45.9 ± 0.5
298.2 K, x1 = 0.173 | 48.2 ± 0.7
298.2 K, x1 = 0.24 | 46.7 ± 0.7
298.2 K, x1 = 0.291 | 45.1 ± 0.3
304.7 K, x1 = 0.005 | 66.3 ± 0.5
304.8 K, x1 = 0.177 | 47.9 ± 0.7
304.9 K, x1 = 0.011 | 63.5 ± 0.5
305.1 K, x1 = 0.109 | 50.8 ± 0.9
305.1 K, x1 = 0.141 | 49.5 ± 0.4
305.1 K, x1 = 0.16 | 48.5 ± 0.5
305.2 K, x1 = 0.017 | 61.3 ± 0.5
305.2 K, x1 = 0.08 | 52.4 ± 1.6
305.3 K, x1 = 0.052 | 55.3 ± 0.5
305.4 K, x1 = 0.027 | 59.2 ± 0.5
312.2 K, x1 = 0.092 | 51.4 ± 0.5
312.2 K, x1 = 0.184 | 47.8 ± 1
312.3 K, x1 = 0.145 | 49.4 ± 1
312.4 K, x1 = 0.069 | 53.2 ± 0.5
312.6 K, x1 = 0.005 | 65.3 ± 0.5
312.6 K, x1 = 0.019 | 60.3 ± 1.1
312.8 K, x1 = 0.01 | 62.9 ± 0.5
312.8 K, x1 = 0.041 | 56.3 ± 1.8
318.1 K, x1 = 0.339 | 44.2 ± 0.5
318.3 K, x1 = 0.259 | 45.5 ± 1
318.7 K, x1 = 0.165 | 47.7 ± 0.7
320.1 K, x1 = 0.034 | 56.1 ± 0.7
320.1 K, x1 = 0.083 | 51.4 ± 0.4
320.8 K, x1 = 0.023 | 58.2 ± 0.7
321.3 K, x1 = 0.013 | 61 ± 0.9
321.8 K, x1 = 0.004 | 64.8 ± 1.4

O [water]
[2]
Conditions | surface tension liquid-gas [mN/m]
296.8 K | 71.1 ± 0.6
297 K | 71.9 ± 2.8
297.7 K | 70.9 ± 0.5
300 K | 71.6 ± 1.1
301.2 K | 71.4 ± 0.7
304.3 K | 70.7 ± 0.6
312.4 K | 69.4 ± 0.5
321.3 K | 68.1 ± 1.4

CCn1cc[n+](C)c1.CS(=O)(=O)[O-] [1-ethyl-3-methylimidazolium methanesulfonate] + O
[1]
Conditions | surface tension liquid-gas [mN/m]
300 K, x1 = 0.002 | 72.1 ± 1.1
300 K, x1 = 0.03 | 69.8 ± 1
300.1 K, x1 = 0.025 | 70.4 ± 0.7
300.2 K, x1 = 0.004 | 71.6 ± 1.1
300.2 K, x1 = 0.006 | 71.4 ± 0.7
300.3 K, x1 = 0.01 | 71.1 ± 0.6
300.4 K, x1 = 0.015 | 70.7 ± 0.7
300.4 K, x1 = 0.019 | 70.5 ± 0.6
301 K, x1 = 0.065 | 67.9 ± 1.1
301.2 K, x1 = 0.274 | 60.7 ± 0.8
301.3 K, x1 = 0.002 | 71.4 ± 0.6
301.3 K, x1 = 0.004 | 70.9 ± 0.7
301.3 K, x1 = 0.007 | 70.4 ± 0.7
301.3 K, x1 = 0.013 | 69.8 ± 0.7
301.3 K, x1 = 0.019 | 69.2 ± 0.8
301.3 K, x1 = 0.026 | 68.8 ± 0.8
301.3 K, x1 = 0.032 | 68.4 ± 0.8
301.3 K, x1 = 0.376 | 59.2 ± 0.5
301.4 K, x1 = 0.01 | 70.1 ± 0.7
301.7 K, x1 = 0.112 | 65.6 ± 0.7
301.7 K, x1 = 0.485 | 58.1 ± 0.5
302.4 K, x1 = 0.08 | 66 ± 0.8
302.7 K, x1 = 0.133 | 63.5 ± 0.8
302.7 K, x1 = 0.181 | 62.9 ± 2.1
302.9 K, x1 = 0.199 | 61.2 ± 1.8
303.2 K, x1 = 0.474 | 57.3 ± 0.6
303.3 K, x1 = 0.388 | 57.7 ± 0.7
303.8 K, x1 = 0.284 | 58.7 ± 1.5

O [water] + CCCCCCn1cc[n+](C)c1.[Cl-]
Conditions | surface tension liquid-gas [mN/m]
[1], 297.7 K, x2 = 0 | 70.9 ± 0.5

CCCCCCn1cc[n+](C)c1.[Cl-] [1-hexyl-3-methylimidazolium chloride] + O
[1]
Conditions | surface tension liquid-gas [mN/m]
297.2 K, x1 = 0.003 | 61.8 ± 0.4
297.4 K, x1 = 0.009 | 55.2 ± 0.4
297.4 K, x1 = 0.02 | 50.5 ± 0.7
297.6 K, x1 = 0.045 | 47.6 ± 0.8
297.7 K, x1 = 0.013 | 52.8 ± 1
297.8 K, x1 = 0.073 | 46 ± 0.3
297.9 K, x1 = 0.121 | 43.8 ± 0.3
298 K, x1 = 0.092 | 45 ± 0.3
298.2 K, x1 = 0.143 | 43.2 ± 0.3

O [water] + CCCCn1cc[n+](C)c1.CS(=O)(=O)[O-]
[1], x2 = 0
Conditions | surface tension liquid-gas [mN/m]
297 K | 71.9 ± 2.8
304.3 K | 70.7 ± 0.6
312.4 K | 69.4 ± 0.5
321.3 K | 68.1 ± 1.4
